Reference: ChEMBL document CHEMBL1156672, “Selectivity criterion for pyrazolo[3,4-b]pyrid[az]ine derivatives as GSK-3 inhibitors: CoMFA and molecular docking studies” (Eur J Med Chem, 2008)

Target: Cyclin-dependent kinase 2 (Homo sapiens, UniProt P24941)

IC50: 5 nM
SMILES: O=C(NC1=NNC2=CC=CC21)C1CC1 (stereo unspecified)
